In brackets after ≈: the same amount, converted by molar mass. Read-outs that look alike come from different tables or passages of the source.
Assay: Approximate solubility of pomalidomide at 50°C in 96 solvent compositions (LC)
Type: physicochemical
Details: organic solvent or mixture, thermodynamic from solid
Protocol: Pomalidomide Solid Form Preparations: Preparation of solid form of pomalidomide was conducted by equilibrating pomalidomide in 96 solvent compositions at 50°C and subjected to four conditions: slurry, evaporation, cooling, and precipitation. […] Solvents were then added, as binary gradients consisting of main solvent and co-solvent, to give a total of 150 µl, in each of the 96 vials (see Table 6 for the exact composition of each vial). […] For each of the evaporation, precipitation, and cooling experiments, approximately 8 mg of a solid sample of pomalidomide (e.g., Form A) was delivered to each position of the plate. Solvents were added to the master plate, as binary gradients consisting of main solvent and co-solvent, to give a total volume of 800 µT in each of the 96 vials (see Table 7 for the exact composition of each vial). The master plate, containing pomalidomide and solvents, was then equilibrated by stirring for 2 hours at 50°C. Upon completion of the equilibration cycle, the supernatant was aspirated into a four-tipped needle assembly and transferred to a sealed parallel filtration assembly. The mixtures were forced through the filtration assembly using positive pressure and the filtrates were collected in an array of glass vials. The filtered solutions were subsequently aspirated into the four-tipped assembly and aliquots were dispensed to an array of glass vials for subsequent LC analysis to determine approximate concentrations of pomalidomide in each solvent composition at the beginning of the experiments (Table 8). Both the four-tipped needle assembly and filtration assembly were maintained at the equilibration temperature of 50°C throughout the entire transfer process.
The results correspond to the solvent systems described in Table 7, equilibrated at 50°C for 2 hours. […] The approximate concentrations were determined by LC.

Nc1cccc2c1C(=O)N(C1CCC(=O)NC1=O)C2=O (stereo not drawn) [Pomalidomide, 4-amino-2-(2,6-dioxopiperidine-3-yl)isoindoline-1,3-dione]
solubility at 2 h (binary solvent composition (main solvent and co-solvent), 50 °C, solvent system D12 of Table 7, read-out: Approximate Measured Solubility): 670 µg/mL (≈ 2450 µM)
solubility at 2 h (binary solvent mixture (main solvent and co-solvent), 50 °C, solvent system D9 of Table 7, read-out: Approximate Measured Solubility): 1630 µg/mL (≈ 5970 µM)
solubility at 2 h (binary solvent mixture (main solvent and co-solvent), 50 °C, solvent system E1 of Table 7, read-out: Approximate Measured Solubility): 1600 µg/mL (≈ 5860 µM)
solubility at 2 h (binary solvent mixture (main solvent and co-solvent), 50 °C, solvent system E2 of Table 7, read-out: Approximate Measured Solubility): 690 µg/mL (≈ 2530 µM)
solubility at 2 h (binary solvent mixture (main solvent and co-solvent), 50 °C, solvent system E3 of Table 7, read-out: Approximate Measured Solubility): 320 µg/mL (≈ 1170 µM)
solubility at 2 h (binary solvent mixture (main solvent and co-solvent), 50 °C, solvent system E4 of Table 7, read-out: Approximate Measured Solubility): 130 µg/mL (≈ 476 µM)
solubility at 2 h (binary solvent mixture (main solvent and co-solvent), 50 °C, solvent system E5 of Table 7, read-out: Approximate Measured Solubility): 20 µg/mL (≈ 73.2 µM)
solubility at 2 h (binary solvent mixture (main solvent and co-solvent), 50 °C, solvent system E7 of Table 7, read-out: Approximate Measured Solubility): 20 µg/mL (≈ 73.2 µM)
solubility at 2 h (binary solvent mixture (main solvent and co-solvent), 50 °C, solvent system E8 of Table 7, read-out: Approximate Measured Solubility): 730 µg/mL (≈ 2670 µM)
solubility at 2 h (binary solvent mixture (main solvent and co-solvent), 50 °C, solvent system E9 of Table 7, read-out: Approximate Measured Solubility): 1630 µg/mL (≈ 5970 µM)
solubility at 2 h (binary solvent mixture (main solvent and co-solvent), 50 °C, solvent system E10 of Table 7, read-out: Approximate Measured Solubility): 2310 µg/mL (≈ 8450 µM)
solubility at 2 h (binary solvent mixture (main solvent and co-solvent), 50 °C, solvent system E11 of Table 7, read-out: Approximate Measured Solubility): 2480 µg/mL (≈ 9080 µM)
solubility at 2 h (binary solvent mixture (main solvent and co-solvent), 50 °C, solvent system E12 of Table 7, read-out: Approximate Measured Solubility): 950 µg/mL (≈ 3480 µM)
solubility at 2 h (binary solvent mixture (main solvent and co-solvent), 50 °C, solvent system F1 of Table 7, read-out: Approximate Measured Solubility): 100 µg/mL (≈ 366 µM)
solubility at 2 h (binary solvent mixture (main solvent and co-solvent), 50 °C, solvent system F2 of Table 7, read-out: Approximate Measured Solubility): 60 µg/mL (≈ 220 µM)
solubility at 2 h (binary solvent mixture (main solvent and co-solvent), 50 °C, solvent system F3 of Table 7, read-out: Approximate Measured Solubility): 30 µg/mL (≈ 110 µM)
solubility at 2 h (binary solvent mixture (main solvent and co-solvent), 50 °C, solvent system F4 of Table 7, read-out: Approximate Measured Solubility): 10 µg/mL (≈ 36.6 µM)
solubility at 2 h (binary solvent mixture (main solvent and co-solvent), 50 °C, solvent system F7 of Table 7, read-out: Approximate Measured Solubility): 40 µg/mL (≈ 146 µM)
solubility at 2 h (binary solvent mixture (main solvent and co-solvent), 50 °C, solvent system F8 of Table 7, read-out: Approximate Measured Solubility): 40 µg/mL (≈ 146 µM)
solubility at 2 h (binary solvent mixture (main solvent and co-solvent), 50 °C, solvent system F9 of Table 7, read-out: Approximate Measured Solubility): 130 µg/mL (≈ 476 µM)
solubility at 2 h (binary solvent mixture (main solvent and co-solvent), 50 °C, solvent system F12 of Table 7, read-out: Approximate Measured Solubility): 550 µg/mL (≈ 2010 µM)
solubility at 2 h (binary solvent mixture (main solvent and co-solvent), 50 °C, solvent system G1 of Table 7, read-out: Approximate Measured Solubility): 2690 µg/mL (≈ 9840 µM)
solubility at 2 h (binary solvent mixture (main solvent and co-solvent), 50 °C, solvent system G2 of Table 7, read-out: Approximate Measured Solubility): 1650 µg/mL (≈ 6040 µM)
solubility at 2 h (binary solvent mixture (main solvent and co-solvent), 50 °C, solvent system G3 of Table 7, read-out: Approximate Measured Solubility): 700 µg/mL (≈ 2560 µM)
solubility at 2 h (binary solvent mixture (main solvent and co-solvent), 50 °C, solvent system G4 of Table 7, read-out: Approximate Measured Solubility): 230 µg/mL (≈ 842 µM)
solubility at 2 h (binary solvent mixture (main solvent and co-solvent), 50 °C, solvent system G5 of Table 7, read-out: Approximate Measured Solubility): 60 µg/mL (≈ 220 µM)
solubility at 2 h (binary solvent mixture (main solvent and co-solvent), 50 °C, solvent system G7 of Table 7, read-out: Approximate Measured Solubility): 30 µg/mL (≈ 110 µM)
solubility at 2 h (binary solvent mixture (main solvent and co-solvent), 50 °C, solvent system G8 of Table 7, read-out: Approximate Measured Solubility): 410 µg/mL (≈ 1500 µM)
solubility at 2 h (binary solvent mixture (main solvent and co-solvent), 50 °C, solvent system G9 of Table 7, read-out: Approximate Measured Solubility): 650 µg/mL (≈ 2380 µM)
solubility at 2 h (binary solvent mixture (main solvent and co-solvent), 50 °C, solvent system G10 of Table 7, read-out: Approximate Measured Solubility): 2310 µg/mL (≈ 8450 µM)
solubility at 2 h (binary solvent mixture (main solvent and co-solvent), 50 °C, solvent system G11 of Table 7, read-out: Approximate Measured Solubility): 5180 µg/mL (≈ 19000 µM)
solubility at 2 h (binary solvent mixture (main solvent and co-solvent), 50 °C, solvent system G12 of Table 7, read-out: Approximate Measured Solubility): 5990 µg/mL (≈ 21900 µM)
solubility at 2 h (binary solvent mixture (main solvent and co-solvent), 50 °C, solvent system H1 of Table 7, read-out: Approximate Measured Solubility): 380 µg/mL (≈ 1390 µM)
solubility at 2 h (binary solvent mixture (main solvent and co-solvent), 50 °C, solvent system H2 of Table 7, read-out: Approximate Measured Solubility): 240 µg/mL (≈ 878 µM)
solubility at 2 h (binary solvent mixture (main solvent and co-solvent), 50 °C, solvent system H3 of Table 7, read-out: Approximate Measured Solubility): 110 µg/mL (≈ 403 µM)
solubility at 2 h (binary solvent mixture (main solvent and co-solvent), 50 °C, solvent system H4 of Table 7, read-out: Approximate Measured Solubility): 40 µg/mL (≈ 146 µM)
solubility at 2 h (binary solvent mixture (main solvent and co-solvent), 50 °C, solvent system H7 of Table 7, read-out: Approximate Measured Solubility): 50 µg/mL (≈ 183 µM)
solubility at 2 h (binary solvent mixture (main solvent and co-solvent), 50 °C, solvent system H8 of Table 7, read-out: Approximate Measured Solubility): 400 µg/mL (≈ 1460 µM)
solubility at 2 h (binary solvent mixture (main solvent and co-solvent), 50 °C, solvent system H10 of Table 7, read-out: Approximate Measured Solubility): 1500 µg/mL (≈ 5490 µM)
solubility at 2 h (binary solvent mixture (main solvent and co-solvent), 50 °C, solvent system H11 of Table 7, read-out: Approximate Measured Solubility): 1960 µg/mL (≈ 7170 µM)
solubility at 2 h (binary solvent mixture (main solvent and co-solvent), 50 °C, solvent system H12 of Table 7, read-out: Approximate Measured Solubility): 2060 µg/mL (≈ 7540 µM)
solubility at 2 h (solvent system H9 of Table 7, read-out: Approximate Measured Solubility): 860 µg/mL (≈ 3150 µM)
solubility at 2 h (solvent system A1 of Table 7, 50 °C, solvent system A1 of Table 7, read-out: Approximate Measured Solubility): 2240 µg/mL (≈ 8200 µM)
solubility at 2 h (solvent system A2 of Table 7, 50 °C, solvent system A2 of Table 7, read-out: Approximate Measured Solubility): 8190 µg/mL (≈ 30000 µM)
solubility at 2 h (solvent system A3 of Table 7, 50 °C, solvent system A3 of Table 7, read-out: Approximate Measured Solubility): 2430 µg/mL (≈ 8890 µM)
solubility at 2 h (solvent system A10 of Table 7, 50 °C, solvent system A10 of Table 7, read-out: Approximate Measured Solubility): 1830 µg/mL (≈ 6700 µM)
solubility at 2 h (solvent system A11 of Table 7, 50 °C, solvent system A11 of Table 7, read-out: Approximate Measured Solubility): 290 µg/mL (≈ 1060 µM)
solubility at 2 h (solvent system A12 of Table 7, 50 °C, solvent system A12 of Table 7, read-out: Approximate Measured Solubility): 80 µg/mL (≈ 293 µM)
